≈ marks a conversion by molar mass, not a printed value.
Assays:
[1] = Microsomal stability (intrinsic clearance), human liver microsomes; type: in vitro ADME; conditions: pH 7.4
Text: (§1) Test Method Microsomal Stability (Intrinsic Clearance)
(§2) A microsomal stability assay is used to measure in vitro clearance (Clint). The assay involves measuring the rate of disappearance of a compound due to its intrinsic attitude to be metabolized (“intrinsic” meaning that the disappearance is not affected by other properties like permeability, binding etc. that play a role when quantifying in vivo clearance). The microsomal stability (intrinsic clearance, Clint) and thus metabolic stability is generally given as μl/min/mg protein. It can be visualized as the volume of solution that 1 mg of microsomes is able to clear of the compound in one minute.
(§3) A Tecan Genesis workstation (RSP 150/8) was used for to perform the microsomal incubations. Analysis was carried out using a Waters ACQUITY UPLC system coupled to an ABSciex API3000 mass spectrometer. Data analysis was performed using Assay Explorer (Symyx).
(§4) Chemicals • Potassium phosphate buffer: 0.05 M potassium phosphate buffer pH 7.4 containing 1 mM MgCl2 • NADPH (nicotinamide adenine dinucleotide phosphate): 22.5 mg NADPH-Na4 in 1.8 ml potassium phosphate buffer • Acetonitrile: 50 Vol % acetonitrile (1 volume acetonitrile, 1 volume water) • DMSO: 20 Vol % DMSO in water • Stock solution of 20 mg/ml human or mouse liver microsomes (protein)/ml in phosphate buffer
(§5) Stock solution of 10 mM compound in 100% DMSO

[2] = Microsomal stability (intrinsic clearance), mouse liver microsomes; type: in vitro ADME; conditions: pH 7.4
Text: as §1, §2, §3, §4, §5

[3] = target: T1, TNKS1 (Homo sapiens, UniProt O95271); assay: TNKS1 activity ELISA (autoparsylation assay); type: biochemical; conditions: GST-tagged Tnks-1 (1023-1327 aa)
T1 construct: GST-tagged Tnks-1 (1023-1327 aa, prepared in-house); made in house
Summary of the method: (§6)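 Autoparsylation ELISA: biotinylated NAD serves as co-substrate for plate-bound GST-TNKS1/TNKS2, incubated with test compounds. Readout is HRP luminescence after streptavidin-HRP binding, referenced to the no-inhibitor reaction, from which IC50 values are derived.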

[4] = target: T2, TNKS2 (Homo sapiens, UniProt Q9H2K2); assay: TNKS2 activity ELISA (autoparsylation assay); type: biochemical; conditions: GST-tagged Tnks-2 (873-1166 aa); read-out: IC50 [M] TNKS2 ELISA
T2 construct: GST-tagged Tnks-2 (873-1166 aa, prepared in-house); made in house
Summary of the method: as §6

[5] = Solubility pH 7.4; type: physicochemical; conditions: pH 7.4, aqueous buffer
[6] = test system: Tankyrases; conditions: read-out: EC50 [M] TNKS cellular assay; DLD1 cells, 24 hours, Axin2 increase
Method: Measurement of Cellular Inhibition of Tankyrase
Cells of the colon carcinoma cell line DLD1 are plated in 96 well plates with 1.5×10^4 cells per well. Next day, cells are treated with a serial dilution of test compound in seven steps as triplicates with a final DMSO concentration of 0.3%. […] The amount of isolated Axin2 protein is determined in a Luminex^200 machine (Luminex Corporation) according to the manufacturer's instruction by counting 100 events per well. […] As controls cells are treated with solvent alone (neutral control) and with a Tankyrase reference inhibitor IWR-2 (3E−06 M) which refers as control for maximum increase of Axin2. For analysis, the obtained data are normalized against the untreated solvent control and fitted for determination of the EC50 values using the Assay Explorer software (Accelrys).

[7] = target: T3, PARP-1 (Homo sapiens, UniProt P09874); assay: PARP-1 autoparsylation assay (HTRF); type: biochemical; conditions: His-tagged Parp-1, autoparsylation HTRF
T3 construct: purchased Enzo Life Sciences GmbH, Lörrach, Germany
Summary of the method: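 HTRF emission ratio reports biotin-ADP-ribose self-transfer onto His-tagged PARP-1, with biotinylated NAD/NAD as co-substrate, sensed via cryptate anti-His and Xlent-streptavidin.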

[8] = target: Tankyrase; conditions: as reported in the cited publication / patent application; read-out: cellular assay: EC50; cited from earlier work
[9] = test system: DLD-1-cancer cells; conditions: Huang et al., 2009; Nature; cited from earlier work

T2 sequence (Q9H2K2 873-1166): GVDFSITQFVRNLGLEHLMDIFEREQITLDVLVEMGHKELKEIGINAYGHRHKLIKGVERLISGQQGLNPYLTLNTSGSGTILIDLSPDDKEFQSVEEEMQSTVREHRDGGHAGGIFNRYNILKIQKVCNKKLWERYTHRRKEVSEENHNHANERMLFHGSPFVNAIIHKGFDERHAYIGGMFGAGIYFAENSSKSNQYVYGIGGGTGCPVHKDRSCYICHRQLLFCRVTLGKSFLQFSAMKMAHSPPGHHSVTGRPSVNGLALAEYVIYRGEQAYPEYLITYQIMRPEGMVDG
T3 sequence (P09874 whole entry): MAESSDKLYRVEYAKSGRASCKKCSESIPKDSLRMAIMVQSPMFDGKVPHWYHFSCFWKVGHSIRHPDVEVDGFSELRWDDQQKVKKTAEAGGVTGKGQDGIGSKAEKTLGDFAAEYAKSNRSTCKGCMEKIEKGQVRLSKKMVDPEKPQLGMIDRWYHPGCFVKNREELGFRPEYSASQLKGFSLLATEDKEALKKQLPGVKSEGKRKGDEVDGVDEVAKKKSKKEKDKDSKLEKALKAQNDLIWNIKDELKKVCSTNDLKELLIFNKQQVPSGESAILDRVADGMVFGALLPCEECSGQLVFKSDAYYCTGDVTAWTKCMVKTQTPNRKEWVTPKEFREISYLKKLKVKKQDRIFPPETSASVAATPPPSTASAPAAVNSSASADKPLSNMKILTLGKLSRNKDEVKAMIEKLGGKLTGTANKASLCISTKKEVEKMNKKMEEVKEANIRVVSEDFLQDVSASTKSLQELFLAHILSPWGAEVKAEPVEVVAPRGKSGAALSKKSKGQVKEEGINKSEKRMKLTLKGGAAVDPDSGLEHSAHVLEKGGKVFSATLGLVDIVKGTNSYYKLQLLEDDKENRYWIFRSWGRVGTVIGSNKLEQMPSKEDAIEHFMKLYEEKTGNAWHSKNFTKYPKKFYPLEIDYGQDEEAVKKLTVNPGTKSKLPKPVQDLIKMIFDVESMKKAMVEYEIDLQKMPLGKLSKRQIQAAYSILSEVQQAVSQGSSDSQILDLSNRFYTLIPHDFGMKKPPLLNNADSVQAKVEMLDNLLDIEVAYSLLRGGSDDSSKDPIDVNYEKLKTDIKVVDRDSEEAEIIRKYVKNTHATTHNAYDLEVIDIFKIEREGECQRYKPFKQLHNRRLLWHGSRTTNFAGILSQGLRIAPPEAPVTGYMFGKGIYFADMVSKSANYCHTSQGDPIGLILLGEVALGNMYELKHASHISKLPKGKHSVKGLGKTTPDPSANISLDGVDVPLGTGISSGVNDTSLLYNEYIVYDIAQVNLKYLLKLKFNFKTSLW
T1 sequence (O95271 1023-1327): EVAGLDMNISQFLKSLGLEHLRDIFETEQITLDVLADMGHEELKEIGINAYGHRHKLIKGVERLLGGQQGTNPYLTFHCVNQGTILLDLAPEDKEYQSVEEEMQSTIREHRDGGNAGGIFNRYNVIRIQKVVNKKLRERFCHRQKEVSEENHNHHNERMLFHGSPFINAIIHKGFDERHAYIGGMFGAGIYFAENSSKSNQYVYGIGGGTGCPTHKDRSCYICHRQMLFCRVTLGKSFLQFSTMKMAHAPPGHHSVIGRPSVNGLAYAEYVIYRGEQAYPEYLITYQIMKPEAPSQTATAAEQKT

Structure (SMILES)	microsomal CLint [1]	microsomal CLint [2]	IC50 [3]	IC50 [4]	solubility [5]	EC50 [6]	IC50 [7]	EC50 [8]	growth of DLD-1-cancer cells [9]
Cn1ncc2c(=O)[nH]c(CCCC(=O)N3CCC(c4cnc(N)c(-c5ncccn5)c4)CC3)nc21 [Compound C45, 6-[4-(6-Amino-5-pyrimidin-2-yl-3′,4′,5′,6′-tetrahydro-2′H-[3,4′]bipyridinyl-1′-yl)-4-oxo-butyl]-1-methyl-1,5-dihydro-pyrazolo[3,4-d]pyrimidin-4-one]	25 µL/min/mg	62 µL/min/mg	0.26 nM	1.9e-10 M	42 µg/mL (≈ 88.7 µM)	4.9e-10 M	3800 nM		
COc1ccc(C(=O)C2CCN(CC(=O)N(Cc3nc4c(c(=O)[nH]3)COCC4)CC3CC3)CC2)cc1								35 nM	
COc1ccc(C(=O)C2CCN(C(=O)CCCc3nc4c(cnn4C)c(=O)[nH]3)CC2)cc1F [Compound C42, 6-{4-[4-(3-Fluoro-4-methoxy-benzoyl)-piperidin-1-yl]-4-oxo-butyl}-1-methyl-1,5-dihydro-pyrazolo[3,4-d]pyrimidin-4-one]	16 µL/min/mg	51 µL/min/mg	0.12 nM	< 1e-10 M	158 µg/mL (≈ 347 µM)	4.8e-09 M	12000 nM		
Cn1cc(C(=O)C2CCN(C(=O)CCCc3nn4cc(F)cc4c(=O)[nH]3)CC2)cn1 [Compound C179, 6-Fluoro-2-{4-[4-(1-methyl-1H-pyrazole-4-carbonyl)-piperidin-1-yl]-4-oxo-butyl}-3H-pyrrolo[2,1-f][1,2,4]triazin-4-one]	11 µL/min/mg	29 µL/min/mg	0.52 nM	1.1e-09 M	58 µg/mL (≈ 140 µM)	1.7e-08 M	11000 nM		
COc1ccc(C(=O)C2CCN(C(=O)CCCc3nn4cccc4c(=O)[nH]3)CC2)cn1 [Compound C137, 2-{4-[4-(6-Methoxy-pyridine-3-carbonyl)-piperidin-1-yl]-4-oxo-butyl}-3H-pyrrolo[2,1-f][1,2,4]triazin-4-one]	10 µL/min/mg	78 µL/min/mg	1.5 nM	1e-09 M	70 µg/mL (≈ 165 µM)	1.9e-08 M	21000 nM		
COc1ccc(C(=O)C2CCN(C(=O)CCCc3nc4ccccc4c(=O)[nH]3)CC2)cc1 [Compound A1, 2-{4-[4-(4-methoxy-benzoyl)-piperidin-1-yl]-4-oxo-butyl}-3H-quinazolin-4-one, reference compound]	104 µL/min/mg	120 µL/min/mg			18 µg/mL (≈ 41.5 µM)	2e-09 M			
Cn1cc(C(=O)C2CCN(C(=O)CCCc3cn4c(F)ccc4c(=O)[nH]3)CC2)cn1 [Compound C208, 6-Fluoro-3-{4-[4-(1-methyl-1H-pyrazole-4-carbonyl)-piperidin-1-yl]-4-oxo-butyl}-2H-pyrrolo[1,2-a]pyrazin-1-one]	< 10 µL/min/mg	26 µL/min/mg	0.25 nM	2.3e-10 M	101 µg/mL (≈ 244 µM)	5.2e-09 M	6000 nM		
COc1ccc(C(=O)C2CCN(C(=O)CCCc3nc4c(c(=O)[nH]3)COCC4)CC2)cc1C [Compound C199, 2-{4-[4-(4-Methoxy-3-methyl-benzoyl)-piperidin-1-yl]-4-oxo-butyl}-3,5,7,8-tetrahydro-pyrano[4,3-d]pyrimidin-4-one]	12 µL/min/mg	44 µL/min/mg	0.27 nM	2.2e-10 M	585 µg/mL (≈ 1290 µM)	3.3e-09 M	2200 nM		
Cc1ccc2c(=O)[nH]c(CCCC(=O)N3CCC(C(=O)c4cnn(C)c4)CC3)nn12 [Compound C157, 7-Methyl-2-{4-[4-(1-methyl-1H-pyrazole-4-carbonyl)-piperidin-1-yl]-4-oxo-butyl}-3H-pyrrolo[2,1-f][1,2,4]triazin-4-one]	22 µL/min/mg	46 µL/min/mg	0.31 nM	2.6e-10 M	272 µg/mL (≈ 663 µM)	2.7e-09 M	860 nM		
COc1ccc(C(=O)C2CCN(C(=O)CCCc3nc4c(cnn4C)c(=O)[nH]3)CC2)cn1 [Compound C43, 6-{4-[4-(6-Methoxy-pyridine-3-carbonyl)-piperidin-1-yl]-4-oxo-butyl}-1-methyl-1,5-dihydro-pyrazolo[3,4-d]pyrimidin-4-one]	15 µL/min/mg	36 µL/min/mg	0.52 nM	3.5e-10 M	207 µg/mL (≈ 472 µM)	4.3e-09 M	18000 nM		
Oc1nc(-c2ccc(C(F)(F)F)cc2)nc2c1CSCC2 [XAV939]									inhibits growth
COc1ccc(C(=O)C2CCN(C(=O)CCCc3nc4c(cnn4C)c(=O)[nH]3)CC2)cc1 [Compound C41, 6-{4-[4-(4-Methoxy-benzoyl)-piperidin-1-yl]-4-oxo-butyl}-1-methyl-1,5-dihydro-pyrazolo[3,4-d]pyrimidin-4-one]	25 µL/min/mg	36 µL/min/mg	0.18 nM	1.3e-10 M	55 µg/mL (≈ 126 µM)	1.8e-09 M	6300 nM		
COc1ccccc1NC(=O)c1ccc(NC(=O)CCc2nc3ccccc3c(=O)[nH]2)cc1								320 nM	
CCn1cc(C(=O)C2CCN(C(=O)CCCc3nn4cccc4c(=O)[nH]3)CC2)cn1 [Compound C214, 2-{4-[4-(1-Ethyl-1H-pyrazole-4-carbonyl)-piperidin-1-yl]-4-oxo-butyl}-3H-pyrrolo[2,1-f][1,2,4]triazin-4-one]	21 µL/min/mg	41 µL/min/mg	2.2 nM	1.3e-09 M	394 µg/mL (≈ 960 µM)	1.5e-08 M	8500 nM		
COc1ccc(C(=O)C2CCN(C(=O)CCCc3nc4c(c(=O)[nH]3)COCC4)CC2)cc1 [Compound C52, 2-{4-[4-(4-Methoxy-benzoyl)-piperidin-1-yl]-4-oxo-butyl}-3,5,7,8-tetrahydro-pyrano[4,3-d]pyrimidin-4-one]	< 10 µL/min/mg	< 10 µL/min/mg	1.4 nM	4.8e-10 M	868 µg/mL (≈ 1970 µM)	4.6e-09 M	1900 nM		
Cn1ncc2c(=O)[nH]c(CCCC(=O)N3CCC(C(=O)c4ccc(F)cc4)CC3)nc21 [Compound C48, 6-{4-[4-(4-Fluoro-benzoyl)-piperidin-1-yl]-4-oxo-butyl}-1-methyl-1,5-dihydro-pyrazolo[3,4-d]pyrimidin-4-one]	20 µL/min/mg	59 µL/min/mg	0.45 nM	3.1e-10 M	206 µg/mL (≈ 484 µM)	4.4e-09 M	7300 nM		
COc1ccc(C(=O)C2CCN(C(=O)CCCc3nc4c(F)cc(F)cc4c(=O)[nH]3)CC2)cc1 [Compound A5, 6,8-difluoro-2-{4-[4-(4-methoxy-benzoyl)-piperidin-1-yl]-4-oxo-butyl}-3H-quinazolin-4-one, reference compound]	58 µL/min/mg	86 µL/min/mg			5 µg/mL (≈ 10.6 µM)	2.6e-09 M			
Cn1ccc2c(=O)[nH]c(CCCC(=O)N3CCC(c4cnc(N)c(C#N)c4)CC3)nc21 [Compound C182, 6-Amino-1′-[4-(7-methyl-4-oxo-4,7-dihydro-3H-pyrrolo[2,3-d]pyrimidin-2-yl)-butyryl]-1′,2′,3′,4′,5′,6′-hexahydro-[3,4′]bipyridinyl-5-carbonitrile]			1.3 nM	6.5e-10 M		2.4e-07 M	1500 nM		
Cc1scc2c(=O)[nH]c(CCCC(=O)N3CCC(c4nnc(-c5ccccc5)o4)CC3)nc12 [Compound C117, 7-Methyl-2-{4-oxo-4-[4-(5-phenyl-[1,3,4]oxadiazol-2-yl)-piperidin-1-yl]-butyl}-3H-thieno[3,4-d]pyrimidin-4-one]			8.2 nM	5.7e-09 M		1.3e-07 M	820 nM		

Source: patent US9809598B2 (Merck Patent GmbH, priority 2014, dated 2017)
